Source: PubChem BioAssay AID1963450 (Molecular Pharmacology Branch, DTP, NCI, 2024)

Test system: 556581-035-R-J1-PDC complex spheroid growth
Assay: Anticancer human tumor 556581-035-R-J1-PDC patient-derived ovarian carcinoma cell line growth inhibition [Asc]
Settings: for IC50: curve of first compound; for viability, T/C: stronger effect = lower value
Protocol: Multicellular complex tumor spheroid response to apoptosis pathway targeting inhibitors Alrizomadlin, Pelcitoclax, and Dasminapant in combination with a variety of drugs and investigational agents in selected tumor cell lines
The MDM2 inhibitor alrizomadlin, the Bcl-2/Bcl-xL inhibitor pelcitoclax, and the IAPs inhibitor dasminapant were evaluated both individually and in combination with standard of care and investigational anticancer small molecules within a complex spheroid model of solid tumors. . Complex spheroids include a stromal component modeled by human endothelial cells (HUVEC) and fibroblasts modeled by human mesenchymal stem cells (MSCs). The concentration ranges selected for each drug and investigational agent were based upon clinically achievable concentrations if the clinical Cmax of the agent was known.
Compounds. The drugs and investigational agents: alrizomadlin (APG-115; NSC831270), pelcitoclax (APG-1252; NSC835773), dasminapant (APG-1387;NSC834197), TAK-243 (NSC785004), copanlisib (NSC809693), olaparib (NSC753686), talazoparib (NSC767125), cobimetinib (NSC 768068), eltanexor (KPT-8602, NSC 794443), abemaciclib (NSC 768073), sotorasib (NSC818433), adagrasib (NSC 831453), MRTX-1133 (NSC 836407), Iadademestat (ORY1001, NSC 806812), and RMC-4630 (NSC839698), were obtained from the NCI Developmental Therapeutics Program Chemical Repository. The FDA-approved anticancer drug set is available from the Developmental Therapeutics Program at https://dtp.cancer.gov/organization/dscb/obtaining/available plates.htm. […] The stock solutions were prepared in dimethyl sulfoxide (DMSO, Sigma-Aldrich, St. Louis, MO, cat. D2650) at 800-fold the tested concentration and stored at -70 degrees C prior to their use. All drugs and investigational agents were tested over a range starting from a high concentration at or near the clinical Cmax and decreasing in half-log increments. If the clinical Cmax for an agent had not been determined, the highest concentration tested was 10 microM.
The patient-derived cancer (PDC) cell lines include five colon adenocarcinomas: 186277-243-T-J2-PDC, 616215-338-R-J1-PDC, 439559-082-T-J2-PDC, 463943-066-T-J2-PDC, and 519858-162-T-J1-PDC; three pancreatic carcinomas: 323965-272-R-J2-PDC, 521955-158-R6-J3-PDC, and 521955-158-R2-J5-PDC; two uterine sarcomas: 327498-152-R-J2-PDC and 993429-296-R-J1-PDC; two rhabdomyosarcomas: 755483-174-R-J1-PDC and 772245-204-R-J1-PDC; two soft tissue sarcomas: 126254-015-R-J1-PDC and 494315-158-R-J1-PDC; two malignant fibrous histiocytomas: 317291-083-R-J1-PDC and 596521-263-R-J1-PDC; two breast carcinomas: 171881-019-R-J1-PDC and 885512-296-R-J2-PDC; and one ovarian carcinoma: 6556581-035-R-J-PDC were obtained from the NCI PDMR, (https://pdmr.cancer.gov). The established cell lines HSSY-2 synovial sarcoma (RRID:CVCL 8719), SYO-1 synovial sarcoma (RRID:CVCL_7146), MPNST malignant peripheral neural sheath tumor were obtained from the Sloan Kettering Institute. The following established cell lines were purchased from the American Type Culture Collection (ATCC, Manassas, VA), Sor the received from the NCI repository:, PANC-1 pancreatic carcinoma (CRL-1469, RRID:CVCL_0480), OVCAR-5 ovarian carcinoma (RRID:CVCL_1628), OVCAR-8 ovarian carcinoma (RRID:CVCL_1629), , MCF-7 breast carcinoma (CRL-12584, RRID:CVCL_0031), MDA-MB-231 breast carcinoma (CRL-12532, RRID:CVCL_0062), NCI-H1876 small cell lung carcinoma (CRL-5902, RRID:CVCL_1503), NCI-H510A small cell lung carcinoma (HTB-184, RRID:CVCL_1565), NCI-H1417 (CRL-5869, RRID:CVCL_1469), and NCI-H196 small cell lung carcinoma (CRL-5823, RRID:CVCL_1509). Dr. Peter Houghton (Greehey Children's Cancer Research Institute, University of Texas Health Science Center, San Antonio, TX) provided Rh-18 rhabdomyosarcoma (RRID:CVCL_1659). Pooled donor human umbilical vein endothelial cells (HUVEC, Lonza, cat. CC-2519) and human mesenchymal stem cells (hMSC, Lonza, cat. PT-2501) were purchased from Lonza (Walkersville, MD).
Cell Culture. […]

[1] = second compound 0.03 µM, first compound 0.0316 µM
[2] = second compound 0.03 µM, first compound 0.1 µM
[3] = second compound 0.03 µM, first compound 0.316 µM
[4] = second compound 0.03 µM, first compound 1 µM
[5] = second compound 0.03 µM, first compound 3.16 µM
[6] = second compound 0.03 µM, first compound 10 µM
[7] = second compound 0.0949 µM, first compound 0.0316 µM
[8] = second compound 0.0949 µM, first compound 0.1 µM
[9] = second compound 0.0949 µM, first compound 0.316 µM
[10] = second compound 0.0949 µM, first compound 1 µM
[11] = second compound 0.0949 µM, first compound 3.16 µM
[12] = second compound 0.0949 µM, first compound 10 µM
[13] = second compound 0.3 µM, first compound 0.0316 µM
[14] = second compound 0.3 µM, first compound 0.1 µM
[15] = second compound 0.3 µM, first compound 0.316 µM
[16] = second compound 0.3 µM, first compound 1 µM
[17] = second compound 0.3 µM, first compound 3.16 µM
[18] = second compound 0.3 µM, first compound 10 µM
[19] = second compound 0.949 µM, first compound 0.0316 µM
[20] = second compound 0.949 µM, first compound 0.1 µM
[21] = second compound 0.949 µM, first compound 0.316 µM
[22] = second compound 0.949 µM, first compound 1 µM
[23] = second compound 0.949 µM, first compound 3.16 µM
[24] = second compound 0.949 µM, first compound 10 µM
[25] = second compound 3 µM, first compound 0.0316 µM
[26] = second compound 3 µM, first compound 0.1 µM
[27] = second compound 3 µM, first compound 0.316 µM
[28] = second compound 3 µM, first compound 1 µM
[29] = second compound 3 µM, first compound 3.16 µM
[30] = second compound 3 µM, first compound 10 µM
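Also: spheroids exposed to agents for 7 days before viability read.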

| Structure (SMILES) | IC50 (second compound 0.03 µM) [µM] | IC50 (second compound 0.0949 µM) [µM] | IC50 (second compound 0.3 µM) [µM] | IC50 (second compound 0.949 µM) [µM] | IC50 (second compound 3 µM) [µM] | viability, T/C [1] [%] | viability, T/C [2] [%] | viability, T/C [3] [%] | viability, T/C [4] [%] | viability, T/C [5] [%] | viability, T/C [6] [%] | viability, T/C [7] [%] | viability, T/C [8] [%] | viability, T/C [9] [%] | viability, T/C [10] [%] | viability, T/C [11] [%] | viability, T/C [12] [%] | viability, T/C [13] [%] | viability, T/C [14] [%] | viability, T/C [15] [%] | other results |
| --- | --- | --- | --- | --- | --- | --- | --- | --- | --- | --- | --- | --- | --- | --- | --- | --- | --- | --- | --- | --- | --- |
| C=CC(=O)N1CCN(c2nc(=O)n(-c3c(C)ccnc3C(C)C)c3nc(-c4c(O)cccc4F)c(F)cc23)C(C)C1 (stereo not given) + CCN1C(C(=O)NC23CCC(C(=O)O)(CC2)CC3)C(c2cccc(Cl)c2F)C2(C(=O)Nc3cc(Cl)ccc32)C12CCCCC2 | > 10 | > 10 | > 10 | > 10 | > 10 | 96.1 | 98.7 | 95.1 | 102 | 94.3 | 94.4 | 102 | 99.1 | 104 | 88 | 117 | 99.4 | 102 | 103 | 101 | viability, T/C [16]: 86.6%; viability, T/C [17]: 116%; viability, T/C [18]: 103%; viability, T/C [19]: 113%; viability, T/C [20]: 95.6%; viability, T/C [21]: 119%; viability, T/C [22]: 115%; viability, T/C [23]: 109%; viability, T/C [24]: 103%; viability, T/C [25]: 93.2%; viability, T/C [26]: 87.5%; viability, T/C [27]: 96%; viability, T/C [28]: 96.5%; viability, T/C [29]: 103%; viability, T/C [30]: 84.8% |
| O=C(c1cc(Cc2n[nH]c(=O)c3ccccc23)ccc1F)N1CCN(C(=O)C2CC2)CC1 + CCN1C(C(=O)NC23CCC(C(=O)O)(CC2)CC3)C(c2cccc(Cl)c2F)C2(C(=O)Nc3cc(Cl)ccc32)C12CCCCC2 | > 10 | > 10 | > 10 | > 10 | > 10 | 105 | 98 | 85.5 | 89.9 | 86.7 | 70.6 | 106 | 96.2 | 94 | 93.7 | 87.9 | 77 | 104 | 97.2 | 99.2 | viability, T/C [16]: 97.1%; viability, T/C [17]: 73.3%; viability, T/C [18]: 79.2%; viability, T/C [19]: 89.9%; viability, T/C [20]: 92.6%; viability, T/C [21]: 103%; viability, T/C [22]: 86.1%; viability, T/C [23]: 79.3%; viability, T/C [24]: 83.6%; viability, T/C [25]: 97.5%; viability, T/C [26]: 81.8%; viability, T/C [27]: 87.5%; viability, T/C [28]: 86.8%; viability, T/C [29]: 84.8%; viability, T/C [30]: 65.9% |
| C=C(F)C(=O)N1CCN(c2nc(OCC3CCCN3C)nc3c2CCN(c2cccc4cccc(Cl)c24)C3)CC1CC#N (stereo not given) + CCN1C(C(=O)NC23CCC(C(=O)O)(CC2)CC3)C(c2cccc(Cl)c2F)C2(C(=O)Nc3cc(Cl)ccc32)C12CCCCC2 | 3.8 | 3.86 | 3.88 | 4.39 | 2.67 | 92.1 | 97.3 | 112 | 94.5 | 59 | 3.04 | 114 | 102 | 90.8 | 87.8 | 62.5 | 3.7 | 103 | 92.5 | 103 | viability, T/C [16]: 81.6%; viability, T/C [17]: 61.4%; viability, T/C [18]: 3.01%; viability, T/C [19]: 91.7%; viability, T/C [20]: 99.2%; viability, T/C [21]: 98.3%; viability, T/C [22]: 84.9%; viability, T/C [23]: 65.6%; viability, T/C [24]: 12.3%; viability, T/C [25]: 89.8%; viability, T/C [26]: 105%; viability, T/C [27]: 92.5%; viability, T/C [28]: 79.2%; viability, T/C [29]: 45.2%; viability, T/C [30]: 2.9% |
